According to patent US20080095754A1, “OPHTHALMIC COMPOSITIONS COMPRISING DIGLYCINE” (priority 2006, published 2008):
Residues, ends and D or L forms follow the SMILES beside them.

What was measured:
lysozyme [1] = test: VP-DSC thermal unfolding of lysozyme in formulated solutions; assay type: physicochemical; conditions: for increase in the melting temperature of lysozyme: in both VP-DSC and CD; for reversibility of thermal denaturation / refolding of lysozyme, VP-DSC: second scan
Experimental: (§1) To evaluate the effect of diglycine on the conformational stability of lysozyme, Formulations 1 and 2 as well as a formulation without diglycine were analyzed by differential scanning calorimetry (DSC) and circular dichroism (CD). Before DSC and CD analysis, a lysozyme solution was prepared in borate buffer, pH 7.3 (sodium borate, 0.09%; boric acid, 0.85%; sodium chloride, 0.22%) at a concentration of 5 mg/mL, and was dialyzed against the formulated solutions containing 0, 1 (Formulation 1), and 3% (Formulation 2) diglycine, at 2-8° C. for 16 hours. Thermal scans were preformed twice to investigate the reversibility of thermal unfolding for both DSC and CD. This study examines the values of melting temperature (Tm), unfolding enthalpies (ΔH), and the ability of the lysozyme to refold upon unfolding for each of the three formulations because these parameters, in general, predict the thermostability of a protein and approximates the susceptibility of a protein to aggegrate and other irreversible changes at lower temperatures.
For the DSC analysis, thermograms were obtained on a VP-DSC (Microcal, USA) at a scan rate of 90° C. per hour from 10° C. to 95° C. All samples were diluted with the formulated solutions to a concentration of 0.5 mg/mL, and degassed for 4 minutes using a vacuum. The thermograms were corrected for the baseline signal and normalized for protein concentration. Using a non-2-state unfolding model, the Tm and the ΔH were determined by Origin software. […]

lysozyme [2] = test: Far-UV circular dichroism (CD) thermal melting of lysozyme in formulated solutions; assay type: physicochemical; conditions: for reversibility of thermal denaturation / refolding of lysozyme, CD: second scan; for change of lysozyme Tm, CD: glycerin 1%, trehalose 1% and 5%, alone
Experimental: as §1
CD spectra were conducted on a Jasco-810 Spectropolarimeter. The far-UV CD studies were preformed in a 1-mm pathlength cell at a protein concentration of 0.2 mg/mL, using a scan rate of 50 nm/min from 190 nm to 260 nm and a scan rate of 1° C./min from 20° C. to 95° C. The melting temperatures and the unfolding enthalpies were determined from the denaturation curved obtained from the dependency of the mean residue ellipticity at 230 nm on temperature.
A second experiment screened the additives glycerin, trehalose, and hyaluronic acid (HA) in combination with 1% diglycine, for their ability to stabilize the conformation of lysozyme. VP-DSC and CD were again used to measure the melting temperatures (Tm), unfolding enthalpies (ΔH), and the ability to refold the lysozyme upon unfolding.
Before DSC and CD analysis, the lysozyme solution was prepared in a borate buffer, pH 7.3 (sodium borate, 0.09%; boric acid, 0.85%; sodium chloride, 0.22%) at a concentration of 5 mg/mL. It was then dialyzed against the formulated solutions containing either 1% glycerin, 1% trehalose, 5% trehalose, 1% diglycine and 3% glycerin, or 1% diglycine and 3% trehalose, at 2-8° C. for 16 hours. For the hyaluronic acid formulation, the lysozyme solution was dialyzed against the borate buffer, and subsequently diluted to the desired concentrations with 0.2% of hyaluronic acid for analyses. Thermal scans were performed twice to investigate the reversibility of thermal unfolding for both methods.
The VP-DSC results are supported by the circular dichroism (CD) spectral measurements which were conducted as a function of temperature on a Jasco-810 Spectropolarimeter. The far-UV CD studies were performed in a 1-mm pathlength cell at a protein concentration of 0.2 mg/mL, and a scan rate of 1° C./min form 20° C. to 95° C. The melting temperatures and the Van't Hoff enthalpies were determined from denaturation curves obtained from the mean residue ellipticity at 230 nm as a function of temperature. Tables 2 and 3 summarize the results of the CD measurements and FIGS. 13-18 show the CD-thermal scans.

| Compound | increase in the melting temperature of lysozyme (lysozyme [1]; 1% w/w diglycine vs borate buffer) | increase in the melting temperature of lysozyme (lysozyme [1]; 3% w/w diglycine vs borate buffer) [°C] | reversibility of thermal denaturation / refolding of lysozyme, VP-DSC (lysozyme [1]) | reversibility of thermal denaturation / refolding of lysozyme, CD (lysozyme [2]) | change of lysozyme Tm, VP-DSC (lysozyme [1]) | change of lysozyme Tm, CD (lysozyme [2]) |
| --- | --- | --- | --- | --- | --- | --- |
| NCC(=O)NCC(=O)O [diglycine] (H-Gly-Gly-OH) | approximately 2 °C | ~4 | at least partially reversible | at least partially reversible | – | – |
| OCC(O)CO [glycerin] | – | – | not able to refold | partial refolding phenomenon | did not increase | did not increase |
| OC[C@H]1O[C@H](O[C@H]2O[C@H](CO)[C@@H](O)[C@H](O)[C@H]2O)[C@H](O)[C@@H](O)[C@@H]1O [trehalose] | – | – | not able to refold | not able to refold | did not increase | did not increase |
